Laboratory results taken from a melting point compilation (Tetko et al.).

melting point [°C] | SMILES
85 | Cc1nnc(-c2ccccn2)nc1C
63 to 64 | CC(C)Cc1ccc(C(=O)C(C)Br)cc1 (stereo unspecified)
273 to 276 | Brc1n[nH]c2nc3ccccc3nc12
> 300 | N=C(N)NCC(O)CC(O)(C(=O)O)C1OC(n2cc(CO)c(N)nc2=O)C=CC1NC(=O)C(N)CO (stereo unspecified)
251 | Oc1cc(C(F)(F)F)nc(S)n1
27 | CCCCCC(=O)c1ccccc1
76.8 | Cc1cccc(C(=O)C(=O)c2ccccc2)n1
58 to 61 | CC(=O)c1cc(Br)ccc1O
213 to 214 | CN(C)c1ccc(C=C(C#N)c2ccc(Cl)c(Cl)c2)cc1
73.8 to 75.1 | CC(=O)CC(=O)c1c(C)c(C)c(C)c(C)c1C
100 | OCC1OC(SCCc2ccccc2)C(O)C(O)C1O (stereo unspecified)
187 | CNc1ccc(NCCO)c2c1C(=O)c1ccccc1C2=O
101 | O=[N+]([O-])c1cccnc1Cl
185 to 186 | O=C(O)c1ccc(OC2CCOCC2)cc1
150 to 152 | NC(=S)NCCc1ccccc1
107 | C=C(C)CNc1ccc(C(C)C(=O)O)cc1 (stereo unspecified)
81 | ClC1=CC(c2ccccc2)c2ccccc21 (stereo unspecified)
186 | NC(C(=O)O)C(O)c1ccccc1 (racemic)
79 | COc1c(F)cc(N)cc1F
225 | Cc1nc(/C(C#N)=N/Nc2ccc(Cl)cc2)sc1/N=N/c1ccccc1
77 | COc1ccc(OC)c(C(=O)O)c1
88 | Cc1cnc(N)c(I)c1
15 to 19 | NCCCNCCO

melting point [°C] | SMILES
200 | NC(=O)c1cnccc1/C=C/c1ccccc1
105 | CCOC(=O)c1ccc(N/C=C2\C(=O)C3(C)CCC2C3(C)C)cc1 (stereo unspecified)
253 | O=C(O)c1cc(O)c(O)c(O)c1
192 | Nc1c(CN2CCOCC2)c(=O)oc2ccccc12
161 to 171 | NNC(=O)CSc1ccccc1[N+](=O)[O-]
220 | CC1=NN(c2ccccc2)C(=O)/C1=C\c1cccc(/C=C2\C(=O)N(c3ccccc3)N=C2C)c1
-60 | C=C(C)C(=O)OC1CC2CCC1(C)C2(C)C (stereo unspecified)
171 to 172 | CCOC(=O)/C(C#N)=C/c1ccc(O)cc1
-7.5 | CCCCCCCC(C)=O
233 to 235 | O=C1c2ccccc2C(=O)N1O
115 | CCOC(=O)c1c(SC)nn(C(=O)c2cccc(C)c2)c1C
88 | Oc1ccccc1C(O)c1ccccc1 (stereo unspecified)
209 | C/C(=N\Nc1ccccc1)c1nc2c(ccc3ccccc32)nc1C
96 | CC(=O)c1cccc(O)c1
249 | N#C/C(=C\c1ccc(Cl)cc1Cl)c1nc2ccccc2[nH]1
50 to 55 | O=C=Nc1ccc(F)cc1[N+](=O)[O-]
57 | FC(F)(F)c1cccc(C(F)(F)F)n1
-113 | CCCSC
43 | N#Cc1ccc(F)cn1
45 | CC(=O)c1ccc(C2CC2Cl)cc1 (stereo unspecified)
-28 | CCCCCCCCOC(=O)CCCCC
240 | Cn1c(=O)c(C2=NNC(=O)C2=NNc2ccc(Cl)cc2)c(O)c2ccccc21
210 | Cc1cc(C)c(C[S+]([O-])Cc2c(C)cc(C)cc2C)c(C)c1

melting point [°C] | SMILES
145 to 149 | O=[N+]([O-])c1ccc2c(c1)OCO2
287 to 291 | Nc1cnccc1C(=O)O
50 | CCOC(=O)CN(C(=O)CCl)c1c(CC)cccc1CC
-81.5 | Fc1cccc(C(F)(F)F)c1
41 | C=C(O[Si](C)(C)C)c1c(C)c(C)c(C)c(C)c1C
181 | COc1ccc2c(c1)C(=O)N(CCc1ccc(S(=O)(=O)NC(=O)NC3CCCCC3)cc1)C(=O)C2(C)C
222 | C=CC1=C(C(=O)O)N2C(=O)C(NC(=O)C(=NOCC(=O)O)c3csc(N)n3)C2SC1 (stereo unspecified)
145 to 148 | O=C(O)C=Cc1cccs1
18 | O=C(Cl)c1c(Cl)cccc1Cl
37.5 to 39 | O=C(Cl)c1ccc(OC2CCOCC2)cc1
97 | COc1ccc(C=CC(=O)c2ccc(OC)cc2OC)cc1
101 to 102 | O=Cc1ccc(N2CCCC2)cn1
165 to 168 | N#Cc1cc(Cl)ccc1O
139 to 141 | NS(=O)(=O)c1ccc(Br)s1
93 | CN1C(=O)c2ccccc2C1OC(=O)c1ccccc1 (stereo unspecified)
300 | N#Cc1cc2[nH]c(=O)c(=O)[nH]c2cc1[N+](=O)[O-]
259 to 261 | O=C(O)c1cncnc1
60 to 62 | CC(=O)OC1C(C2COC(C)(C)O2)OC2OC(C)(C)OC21 (stereo unspecified)
80 | COc1ccc2c(=O)n3c(cc2c1)CCCC3
106 | CCOC(=O)C(Cc1c[nH]c2ccccc12)NC(C)=O (stereo unspecified)
106 | CC(=O)Oc1c(C)cc(OCC(O)CNC(C)C)c(C)c1C (stereo unspecified)
175 to 176 | CSC(S)=Nc1ccc(C)cc1
149 | CC(CC(C)=NO)=NO

melting point [°C] | SMILES
119 | N=C(Nc1ccccc1)c1ccccc1
45 to 47 | N#CCCOc1ccc(Cl)cc1
-5 | CCCCCC=CCC=CCCCCCCCC(=O)O
126 to 129 | CC(C)(Oc1ccc(Cl)cc1)C(N)=O
180 | CCC(c1ccccc1)c1c(O)oc2ccccc2c1=O (stereo unspecified)
18.5 | CCCCCCCCCCCCCCC(=O)OC
55.5 | Clc1ccc(Cc2ccc(Cl)cc2)cc1
126 | Cc1ccccc1N=Nc1c(N)ccc2ccccc12
86 | OCC1OC(OCC2OC(O)C(O)C(O)C2O)C(O)C(O)C1O (stereo unspecified)
37 to 40 | Clc1ccc2nonc2c1
51 | CNC(=O)C(F)(F)F
-59 | CCCc1cc(C)cc(C)c1
104 | COC(=O)c1sc(SC)nc1N
80 | OCCN(CCO)CCc1ccc(CSc2ccccc2)cc1
-106 | CC[Si](Cl)(Cl)Cl
204 to 205 | Cc1[nH]c2ccccc2c1C=O
116 | NC(=S)c1ccccc1
234 to 235 | Cc1ccc(C2NC(=O)NC(c3ccc(C)cc3)C2(C#N)C(=O)c2ccccc2)cc1 (stereo unspecified)
132 to 134 | CN(C)c1ccc([N+]([O-])=CC(=O)c2ccc(C(=O)C=[N+]([O-])c3ccc(N(C)C)cc3)cc2)cc1
98 | COc1ccc(CCC(=O)O)cc1OC
21 | O=C(O)C1CCCO1 (stereo unspecified)
55 | CCN(C(C)=O)c1ccccc1
182 | O=C(O)C=Cc1ccc(F)cc1C(F)(F)F

melting point [°C] | SMILES
37 | CCC(=O)c1ccc(C(F)(F)F)c(F)c1
42 to 45 | CCNCCS(=O)(=O)c1ccc(C)cc1
65.5 | Cc1cc(C)c(Br)c(C)c1Br
59 | Cc1ccc(F)c(C#N)c1Cl
187 to 191 | COc1cc2c(cc1O)C=NCC2
137 | CC12CCC(C(C(c3ccccc3)c3ccccc3)C1=O)C2(C)C (stereo unspecified)
106 to 108 | FC(F)(F)c1cc(C=Cc2noc(CCl)n2)cc(C(F)(F)F)c1
52.5 | c1ccc(OCc2ccc(CCCN3CCOCC3)cc2)cc1
181 to 183 | CCOC(=O)c1cc2c(N)c(C(=O)OCC)sc2nc1C(F)(F)F
273 | NC(CCS(=O)(=O)O)C(=O)O (racemic)
136 | CC(=O)Nc1ccc(Br)cc1OC(F)(F)F
61 | CCOC(C/N=C/c1cccc(/C=N/CC(OCC)OCC)c1)OCC
122 | CC(O)C(O)C(O)C(O)C=O (stereo unspecified)
213 | N[C@@H](Cc1cc(I)c(O)c(I)c1)C(=O)O
96 to 98 | CC(=O)CSc1ccc(C)cc1
186 | O=C(C1=NOC2C(=O)N(c3ccc(Br)cc3)C(=O)C12)c1ccc2ccccc2c1 (stereo unspecified)
168 to 171 | CC(C)(C)NC(=S)NC(C)(C)C
93.5 | COc1c(C)c2c(c(O)c1CC=C(C)CCC(=O)OCCN1CCOCC1)C(=O)OC2
35 | CCCCCCCCC=CCCCCCCCC(=O)OCC(O)CO (stereo unspecified)
297 | CC(=O)C1(O)CCC2C3CC(C)C4=CC(=O)C=CC4(C)C3(F)C(O)CC21C (stereo unspecified)

SMILES | melting point [°C]
C=CC1C2=CCOC(=O)C2=COC1OC1OC(CO)C(O)C(O)C1O (stereo unspecified) | 191
CCC(C)c1cc([N+](=O)[O-])cc([N+](=O)[O-])c1OC(=O)C=C(C)C (stereo unspecified) | 70
CCCCCCCC(N)P(=O)(O)O (stereo unspecified) | 269 to 270
CC(=O)C1=CCC2(C)C(CCC3C4CCC(=O)C4(C)CCC32)C1 (stereo unspecified) | 152 to 153
CC(C)(c1ccc(OC(=O)Cl)cc1)c1ccc(OC(=O)Cl)cc1 | 90 to 95
Nc1ncnc2[nH]nnc12 | > 300
Clc1ccc(NC2=NCCN2)cc1 | 147 to 148
O=C=Nc1cccc2ccccc12 | 4
O=C1c2ccccc2C(=O)C1C(=O)C(c1ccccc1)c1ccccc1 | 146
Cc1cc(C)nc(Nc2ccccc2)n1 | 96.3
C#CCN1C(=O)COc2cc(F)c(N3C(=O)C4=C(CCCC4)C3=O)cc21 | 203
CCN(CC)C(=O)SCc1ccc(Cl)cc1 | 3.3
C=CCN=C=S | -80
O=C(O)c1c(Cl)ccc2cc(Cl)cnc12 | 274
O=C1C(=Cc2ccc(N(CCCl)CCCl)cc2)SC(=S)N1CN1CCOCC1 | 164
O=C1NC(=O)C(=NNc2ccccc2[N+](=O)[O-])C(=O)N1 | 290
c1ccc2c(c1)ccc1[nH]c3ccccc3c12 | 134
CCOP(=S)(S)OCC | -10
Cc1cccc(O[Si]23OCCN(CCO2)CCO3)c1 | 166
